The values below come from PMC3756011, “Evaluation of Memory Enhancing Clinically Available Standardized Extract of Bacopa monniera on P-Glycoprotein and Cytochrome P450 3A in Sprague-Dawley Rats” (PLoS ONE, 2013).

Details of series [1]: method as in PMID 15673597. Particulars: rat vs human; cited from earlier work.
Series [2] in a line: Oral pharmacokinetics of carbamazepine and carbamazepine 10,11-epoxide with and without BM pre-treatment. Type of series: in vivo, male Sprague-Dawley rat. To be noted: for CL/F / Cmax / AUC(0-inf) / MRT / AUC(0-∞): Mean ± SD. As for the experimental part:
Samples were vigorously vortexed for five minutes and centrifuged at 12,000 rpm for 20 minutes at 4°C. Supernatant thus obtained were analysed using HPLC-UV method. […] Column efﬂuent was monitored at 286 nm. The mobile phase was a mixture of 10 mM ammonium acetate (pH 7.4) and acetonitrile (65∶35). Chromatography was performed at a ﬂow rate of 1.0 ml/min. Pharmacokinetic parameters of probe drugs in plasma were derived from plasma concentration-time profile of probe drugs by Non-Compartmental analysis using WinNonlin Ver 5.1 (Pharsight Corporation, Mountain Veiw, CA).

Another series deals with Pgp. Set-up: method as in PMID 11318771. To be noted: earlier reports; cited from earlier work.
Series [3] can be described thus: Oral pharmacokinetics of digoxin with and without BM pre-treatment. Type of series: in vivo, male Sprague-Dawley rat. To be noted: for AUC(0-inf) / CL/F / MRT / Vd/F / half-life / Cmax: male, Sprague-Dawley, rat, plasma, po, 0.2 mg/kg. The source says: Rats were divided in two groups (total 40 rats; 10 rats each group) for both probe drugs viz. control and BM pre-treated group.
Pharmacokinetic parameters of probe drugs in plasma were derived from plasma concentration-time profile of probe drugs by Non-Compartmental analysis using WinNonlin Ver 5.1 (Pharsight Corporation, Mountain Veiw, CA).

For series [4] the following is noted: 2 hours after digoxin 0.2 mg/kg oral, BM pretreated vs vehicle.
Where [5] appears, read: BM pre-treated vs vehicle treated rats, abstract.
Setting [6] is: BM pretreated compared to vehicle pretreated rats.
Where [7] appears, read: BM pretreated rats (31 mg/kg/day 7 days), carbamazepine 50 mg/kg oral.
The mark [8] stands for this setting: vehicle pretreated rats, carbamazepine 50 mg/kg oral.
Where [9] appears, read: BM pre-treated compared to vehicle treated rats.
Where [10] appears, read: BM pretreated rats (31 mg/kg/day 7 days), digoxin 0.2 mg/kg oral.
The mark [11] stands for this setting: vehicle pretreated rats, digoxin 0.2 mg/kg oral.

Take `NC(=O)N1c2ccccc2C=Cc2ccccc21` [CBZ, carbamazepine]: in series [1], the “metabolic clearance, rat higher compared to human” value was 10 fold. For the same compound, the “increase in AUC following BM pre-treatment” value in series [2] (setting [5]) was found to be 4 fold. In addition, the “increase in Cmax following BM pre-treatment” value in series [2] (setting [5]) was determined as 1.8 fold. Moreover, the “decrease in CL/F in BM pretreated rats” value in series [2] (setting [6]) amounted to 3.8 times. For the same compound, the “increase in mean AUC in BM pretreated rats” value in series [2] (setting [6]) is on record as 4 times. Moreover, the “increase in mean Cmax in BM pretreated rats” value in series [2] (setting [6]) was 1.8 times. Further, the CL/F in series [2] (male, Sprague-Dawley, rat, in vivo, po, 50 mg/kg, BM pretreated rats (31 mg/kg/day 7 days), carbamazepine 50 mg/kg oral, read-out: CL/F (converted)) is 323 mL/h/kg; in series [2] (male, Sprague-Dawley, rat, in vivo, po, 50 mg/kg, vehicle pretreated rats, carbamazepine 50 mg/kg oral, read-out: CL/F (converted)) it was 1250 mL/h/kg. For the same compound, the maximum concentration (Cmax) in series [2] (male, Sprague-Dawley, rat, plasma, po, 50 mg/kg, BM pretreated rats (31 mg/kg/day 7 days), carbamazepine 50 mg/kg oral 24 h after last BM, read-out: Cmax) was 14400 ± 1220 ng/mL; in series [2] (male, Sprague-Dawley, rat, plasma, po, 50 mg/kg, vehicle pretreated rats, carbamazepine 50 mg/kg oral, read-out: Cmax), 8170 ± 1460 ng/mL. In addition, the AUC(0-inf) in series [2] (male, Sprague-Dawley, rat, plasma, po, 50 mg/kg, BM pretreated rats (31 mg/kg/day 7 days), carbamazepine 50 mg/kg oral) was determined as 169000 ± 65600 ng·h/mL; in series [2] (male, Sprague-Dawley, rat, plasma, po, 50 mg/kg, vehicle pretreated rats, carbamazepine 50 mg/kg oral), 40400 ± 3890 ng·h/mL. Moreover, the mean residence time (MRT) in series [2] (male, Sprague-Dawley, rat, plasma, po, 50 mg/kg, BM pretreated rats (31 mg/kg/day 7 days), carbamazepine 50 mg/kg oral, read-out: MRT) was 10.7 ± 6.57 h; in series [2] (male, Sprague-Dawley, rat, plasma, po, 50 mg/kg, vehicle pretreated rats, carbamazepine 50 mg/kg oral, read-out: MRT), 5.46 ± 1.2 h. Besides, the Pgp substrate status entry in the series on Pgp is recorded as “not a Pgp substrate”.

In the case of `NC(=O)N1c2ccccc2C2OC2c2ccccc21` (stereo not drawn) [CBZ-E, carbamazepine 10,11-epoxide], the Cmax in series [2] (BM pretreated rats (31 mg/kg/day 7 days), carbamazepine 50 mg/kg oral 24 h after last BM) came to 819 ± 170 ng/mL. Also, in series [2] (setting [7]), the “AUC(0-∞)” value was 15100 ± 7360 ng·h/mL and the mean residence time MRT is 21.65 ± 7.69 h. In addition, in series [2] (setting [8]), the “AUC(0-∞)” value was 14680 ± 2900 ng·h/mL, the CL/F worked out at 3.31 ± 0.56 mL/h/kg, the peak concentration (Cmax) came out at 1370 ± 11 ng/mL and the MRT turned out to be 10.05 ± 0.33 h.

On to `C[C@H]1O[C@@H](O[C@H]2[C@@H](O)C[C@H](O[C@H]3[C@@H](O)C[C@H](O[C@H]4CC[C@@]5(C)[C@H](CC[C@@H]6[C@@H]5C[C@@H](O)[C@]5(C)[C@@H](C7=CC(=O)OC7)CC[C@]65O)C4)O[C@@H]3C)O[C@@H]2C)C[C@H](O)[C@@H]1O` [Digoxin, digoxin], for which, in series [3] (setting [9]), the “decrease in CL/F with BM pre-treatment” value is on record as 27%, the “increase in AUC with BM pre-treatment” value amounted to 37%, the “increase in Cmax with BM pre-treatment” value was 9% and the “increase in MRT with BM pre-treatment” value was 17%. Also, the “increase in T1/2 with BM pre-treatment” value in series [3] (setting [9]) is recorded as 48%. In addition, in series [3] (setting [5]), the “increase in AUC following BM pre-treatment” value was 1.3 fold. Further, in series [3] (setting [10]), the AUC(0-inf) amounted to 70.71 ± 0.351 ng·h/mL, the CL/F was 3.53 mL/h/kg, the mean residence time (MRT) is 8.88 ± 1.28 h and the Vd/F is 0.0221 ± 0.0103 L/kg. In addition, the half-life in series [3] (setting [10]) is 4.33 ± 2.03 h. Besides, the peak concentration (Cmax) in series [3] (BM pretreated rats (31 mg/kg/day 7 days), digoxin 0.2 mg/kg oral 24 h after last BM) was determined as 5.28 ± 0.205 ng/mL. Besides, in series [3] (setting [11]), the AUC(0-inf) came out at 51.5 ± 6.1 ng·h/mL, the CL/F is 4.88 mL/h/kg, the highest concentration (Cmax) is 4.82 ± 0.092 ng/mL and the MRT turned out to be 7.56 ± 0.0147 h. Also, in series [3] (setting [11]), the Vd/F was determined as 0.0208 ± 0.00471 L/kg and the half-life is 2.92 ± 0.322 h. Besides, in series [4] (intestine), the “increase in tissue digoxin concentration in intestine” value is recorded as 1.3 fold. The “increase in tissue digoxin concentration in kidney” value in series [4] (kidney) worked out at 1.3 fold.
